# Measurements published in patent US7282210B2, “Process for the in vitro culture of different stages of tissular parasites” (priority 1993, dated 2007).
# Columns and labels:
# [1] = test system: cultured amastigote forms of L. mexicana, L. amazonensis, L. braziliensis and L. chagasi; test: direct leishmanicidal effect of nitric oxide on cultured amastigote forms; type: cell-based, Leishmania
# Description: (§1) Also, one of the mechanisms leading to lysis of the amastigote forms was elucidated.
# The culture kinetics as well as the differentiation of the amastigote forms into promastigote forms were monitored after this treatment.
# cis-aconitase = test: enzymatic activities of amastigote forms treated or not treated with NO; type: biochemical, Leishmania
# Description: as §1
# [2] = test system: resistant amastigote forms of L. mexicana; test: growth inhibition by pentamidine, resistant amastigote forms; type: cell-based
# Description: (§2) In the stage of putting in contact, the parasitic forms are used at concentrations of 10^6 parasite/ml and the activity of the medicaments is studied at increasing concentrations.
# (§3) Promastigote forms of L. mexicana resistant to pentamidine are obtained by medicamentous pressure in vitro and have a resistance index of about 30. They are then transformed according to the culture method already described into corresponding cultured amastigote forms which, after determination of the IC50, retain the resistance to pentamidine induced in the promastigote forms.
# (§4) For the promastigotes the value is 27 and for the amastigotes it is 26.
# [3] = test system: untreated promastigote forms of L. mexicana; test: growth inhibition by pentamidine, untreated promastigote forms; type: cell-based; settings: Leishmania mexicana, read-out: IC50 (concentration of pentamidine for which a growth inhibition of 50% is observed)
# Description: as §2, §3, §4
# [4] = test system: resistant promastigote forms of L. mexicana; test: growth inhibition by pentamidine, resistant promastigote forms; type: cell-based; settings: Leishmania mexicana, read-out: IC50 (concentration of pentamidine for which a growth inhibition of 50% is observed)
# Description: as §2, §3, §4
# [5] = medium containing alpha-ketoglutaric acid (3 mM) and cis-aconitate (3 mM) added immediately to parasites treated with NO
smiles,measurement,setting,value
O=S(=O)([O-])[O-].[Fe+2] [FeSO4],growth of NO-treated amastigote forms,[1]; medium containing 100 μm of FeSO4 added immediately to parasites treated with NO,restore the growth of the amastigote forms
"[N]=O [NO, nitric oxide]",leishmanicidal effect on cultured amastigote forms,"[1]; gaseous NO (1%) carried by nitrogen (99%), pulsed for 15 minutes",leishmanicidal activity
same,effect on cis-aconitase activity,cis-aconitase,inhibition of cis-aconitase
O=C(O)CCC(=O)C(=O)O [alpha-ketoglutaric acid],growth of NO-treated amastigote forms,[1]; [5],restore the growth of the amastigote forms
O=C(O)/C=C(/CC(=O)O)C(=O)O [cis-aconitate],growth of NO-treated amastigote forms,[1]; [5],restore the growth of the amastigote forms
N=C(N)c1ccc(OCCCCCOc2ccc(C(=N)N)cc2)cc1 [pentamidine],IC50,"[2]; Leishmania mexicana, read-out: IC50 (concentration of pentamidine for which a growth inhibition of 50% is observed)",32 ± 1 µM
same,resistance index (IC50 of the resistant strain/IC50 of the untreated strain),[2]; amastigotes,26
same,IC50,[3],1.2 ± 0.05 µM
same,IC50,[4],33 µM
